According to patent publication US20120083464A1, “NEUROPROTECTIVE PROPERTIES OF 5'-METHYLTHIOADENOSINE” (priority 2009, published 2012):
Entries after “also recorded” stand apart in the source; their conditions may differ.

Key:
[1] = test system: cerebellar organotypic cultures; assay: LPS neuroinflammation model in cerebellar organotypic cultures: demyelination and axonal damage (immunofluorescence, Western blot); assay type: cell-based, C57/B16 wild type mice; conditions: 192 μM MTA pre-treatment for half hour, 15 μg/ml LPS, 24 hrs
Excerpt: Organotypic cultures model of neuroinflammation is based on previous observations in which systemic injections of lipopolysaccharide (LPS) in mice spinal cord induce inflammation, demyelinization and Wallerian degeneration. In mice cerebellar organotypic cultures, LPS induces microglia activation with consequent demyelination and axonal damage. In particular, LPS induces TNF-alpha, IL1-beta release, axonal swelling and end bulbs due to axonal transport block, and a decrease of axonal density. Organotypic cultures represent the best model to represent in vivo mechanisms since they maintain cell-cell interaction and organotypic structure of brain region studied. In this way, this in vitro neuroinflammation model reproduces the microglia activation, demyelinization and axonal damage phenomena observed in MS.
Cerebellar organotypic cultures which were pre-treated for half hour with 192 μM of MTA and 15 μg/ml of LPS have been used to generate neuroinflammation model.
2. Data analysis: Western blot, immunofluorescence and ELISA analysis were performed using conventional techniques.

[2] = test system: rats after focal ischemia (MCAO); assay type: in vivo
[3] = test system: Corticospinal tract-YFP mice with chronic EAE; assay: Chronic EAE (model of progressive multiple sclerosis), clinical score and axonal density; assay type: in vivo, mice (C57B6 background)
Excerpt: Chronic EAE was induced in Corticospinal tract-YFP mice (C57B6 background; see Bareyre et al., Nat Med. 2005 December; 11(12):1355-60) immunized with MOG. The fluorescence labelling of motor axons, allows an accurate quantification of axonal damage during EAE.
1. Align spinal cords of all animals and cut out the following pieces of the spinal cord at the same level in all animals: a) a piece of the cervical spinal cord (about 1 cm in length) starting around at the upper cervical level around C1/2 (this will allow you to determine the number of CST fibers that enter the spinal cord); b) a piece of the lumbar spinal cord (about 1 cm in length) starting around the mid-lumbar level L2/3 (this will allow you to determine the number of fibers that reach the lumbar spinal cord).
5. Mount the tissue and analyze the sections using confocal microscopy—use a high-resolution objectives e.g. a 60× oil objective and take a single image plan covering the entire corticospinal tract.
6. Then simple count the number of dots (=number of fibers)—we usually do this blinded on 3-5 sections and then calculate the average for the CST as the CST—especially in the cervical spinal cord which contains many fibers it might be easier to estimate the total number of cervical CST fibers based on counts of several CST areas with a defined size. […]

[4] = test system: oligodendrocytes derived from the optic nerve; assay: Oligodendrocyte excitotoxicity with AMPA; assay type: cell-based, Sprague Dawley rats; conditions: MTA 100-300 μM
Method: Primary cultures of oligodendrocytes derived from optic nerves of 12-d-old Sprague Dawley rats were obtained as described previously (Barres et al., 1992). Cells were seeded into 24-well plates bearing 12-mm-diameter coverslips coated with poly-D-lysine (10 μg/ml) at a density of 5×10^3 cells per well. Cells were maintained at 37° C. and 5% CO2 in a chemically defined medium (Barres et al., 1992, Cell 70:31-46). After 2-4 d in vitro, cultures were composed of at least 98% O4/galactocerebroside-positive (O4/Ga1C_) cells; the majority of the remaining cells were stained with antibodies to glial fibrillary acidic protein (GFAP). No A2B5+ or microglial cells were detected in these cultures (Alberdi et al., 2002, Neurobiol Dis 9:234-243).
Cell toxicity and viability assays were performed as described previously (Sánchez-Gómez and Matute, 1999, Neurobiol Dis 6:475-485). For evaluating the MTA toxicity, cells at 2-4 d in culture were exposed for 24 hours to that drug and cell viability assessed using calcein-AM (Invitrogen). […] Twenty-four hours after drug application, cell viability was assessed using calcein-AM (Invitrogen). The total number of surviving cells on each coverslip emitting calcein fluorescence was counted, and results were expressed as percentage of cell death versus control. Results were expressed as the mean±SEM of at least three independent experiments performed in duplicate. […]

[5] = test system: RN22 cells; assay: Copper sulphate stress in RN22 cells, MTT cell viability; assay type: cell-based, rat
Method: RN22 cells were maintained at 37° C. in DMEM medium supplemented with 10% of fetal bovine serum and penicillin/streptomycine. The assays against stress with copper sulphate were conducted using 24-well plates in DMEM medium without serum. After allowing cell adherence for three days, NGF (100 ng/ml) or MTA was added to different concentrations half an hour before the copper sulphate (150 μM). After twenty-four hours, cell viability was quantified by MTT assay and ROS production was quantified by fluorescence. Assays against stress with hydrogen peroxide were conducted in the same way as the foregoing, using 100 μM hydrogen peroxide as a stress-producing agent.
We determined the quantity of MTT (Sigma) that is reduced to insoluble formazan. After separating the medium, the water-insoluble formazan is solubilised in DMSO and the dissolved material is measured in a spectrophotometer at 570 nm.

CSC[C@H]1O[C@@H](n2cnc3c(N)ncnc32)[C@H](O)[C@@H]1O [MTA, 5′-methylthioadenosine]
demyelination and axonal damage (MBP/NFL immunofluorescence, CNPase/APP Western blot) [1]: prevents; also recorded: absents | damaged area (TTC staining) versus vehicle ([2]; MTA 30 mg/kg i.p. twice daily from 30 min after onset of ischemia, 3 days of reperfusion): did not show a reduction; also recorded: does not protect | toxicity to rats after ischemia ([2]; MTA 100 mg/kg i.p. twice daily): toxic | clinical symptoms (EAE clinical score) versus placebo ([3]; MTA 96 μMol/Kg i.p. daily from first day with EAE score of 2 or higher): amelioration of the clinical symptoms | axonal density in lumbar and cervical spinal cord versus placebo ([3]; MTA 96 μMol/Kg i.p. daily, chronic phase): significantly higher axonal density | protection of oligodendrocytes from excitotoxic insult ([4]; AMPA 10 μM): robust protective activity; also recorded: protects | protection of oligodendrocytes from excitotoxic insult ([4]; AMPA 100 μM (necrotic death)): no protection; also recorded: does not protect | cell viability response (MTT) under copper sulphate stress at high MTA concentrations ([5]; MTA in mM range): lowest response | cell viability (MTT) under copper sulphate stress ([5]; copper sulphate 150 μM, twenty-four hours, reaches NGF control levels at most MTA concentrations): significant neuroprotective effect
